Measured values as given in patent publication US20140031324A1, “COMPOUND COMPOSITION FOR INHALATION USED FOR TREATING ASTHMA” (Intech Biopharm Ltd., priority 2010, published 2014).

Tests used:
OVA-sensitized mice = experiment: Albumin (OVA)-induced asthma model in mice; methacholine-induced tracheal contraction (airway hyperresponsiveness, FlexiVent); assay type: in vivo, Balb/c mice; details: single super high dose, alone or in combination, intratracheal, FIGS. 2 to 4
Method: An albumin-inducing asthma model in mice was used to conduct related tests. In accordance with the control group and the experimental group, the mice were divided into the different groups to conduct the experiment. The control group includes a normal control group which none sensitized mice are given saline (no drug), and an asthma control group which sensitized mice are treated with vehicle. The experimental group is divided into sub-group according to different methods of administering drugs. Respectively, such as the group which is using different dosage and different frequency of the beta2-agonist alone and the group which is using different dosage and different frequency of the pharmaceutical combination of the beta2-agonist with the corticosteroid.
The mice which are for sensitization all experience three times of the peritoneal albumin (OVA) injection with ten-day intervals in advance, on the 24th day, collect the blood sample and exam the IgE to confirm allergy. Then, on the 26th day, albumin was administered in the nasal cavities of the mice. And, from the 30th day, the intratracheal administration is divided into groups of once time dosing and seven-day dosing which is further divided into once or twice daily groups. After the last dose, perform a tracheotomy and intubation and use instruments collect the data of that Methacholine (MCh), induces tracheal contraction. […]

[1] = long acting beta-2 agonists (LABA); cited from earlier work

With CCC(NC(C)C)C(O)c1ccc(O)c2[nH]c(=O)ccc12 (stereo not drawn) [Procaterol] the “acute drug tolerance (ability of trachea relaxing)” value (OVA-sensitized mice) was “acute drug tolerance phenomenon of reducing the ability of trachea relaxing”.

For OCc1cc(C(O)CNCCCCCCOCCCCc2ccccc2)ccc1O (stereo not drawn) [Salmeterol, Salmeterol Xinafoate], the “acute drug tolerance (ability of trachea relaxing)” value (OVA-sensitized mice) is listed as “acute drug tolerance phenomenon of reducing the ability of trachea relaxing” and the duration of action [1] is listed as “up to twelve”.
